Reference: PubChem BioAssay (NCI)
Values joined by “and” are separate entries in the source; they are usually repeats but may differ in a detail not shown here. Identical values can stand only once.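 Assay format: 96-well plates, 48-hour exposure. GI50: concentration for 50% inhibition of growth. TGI marks complete inhibition of growth.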

Tests used:
Experiment in all cases: growth of human tumour cells (NCI), 48 h
[1] = system: MALME-3M melanoma
[2] = system: SK-MEL-28 melanoma
[3] = system: UACC-257 melanoma
[4] = system: OVCAR-3 ovarian
[5] = system: SR leukemia
[6] = system: SNB-75 CNS
[7] = system: TK-10 renal
[8] = system: SNB-19 CNS
[9] = system: HT29 colon
[10] = system: COLO 205 colon

CC(C)(C)OC(=O)[C@@H]1CCC(=O)N1C1(c2ccccc2)c2ccccc2-c2ccccc21
TGI [1]: > 100 µM
TGI [2]: 71.3 µM
TGI [3]: > 100 µM
TGI [4]: > 100 µM
TGI [5]: 62.3 µM
TGI [6]: > 100 µM
TGI [7]: > 100 µM
TGI [8]: > 100 µM
TGI [9]: 90.1 µM
TGI [10]: 77.8 µM

O=C(O)CCC(=O)OCN1C(=O)C2C3C=CC(C2C1=O)C1C2C(=O)N(COC(=O)CCC(=O)O)C(=O)C2C31 (configuration not stated)
TGI [1]: > 100 µM
TGI [2]: > 100 µM
TGI [3]: > 100 µM
TGI [4]: > 100 µM
TGI [5]: 52.4 µM
TGI [6]: > 100 µM
TGI [7]: > 100 µM
TGI [8]: > 100 µM
TGI [9]: > 100 µM
TGI [10]: > 100 µM

COC(=O)c1ccccc1C1CN=NC12Cc1c(ccc3c1CCC3)C2=O (configuration not stated)
TGI [1]: > 100 µM
TGI [2]: > 100 µM
TGI [3]: 95.1 µM
TGI [4]: > 100 µM
TGI [5]: > 100 µM
TGI [6]: > 100 µM
TGI [7]: > 100 µM
TGI [8]: > 100 µM
TGI [9]: > 100 µM
TGI [10]: > 100 µM

NNC(=O)Nc1nc2ccc(NN)cc2[nH]1
TGI [1]: > 100 µM
TGI [2]: 56.8 µM
TGI [3]: 88.1 µM
TGI [4]: > 100 µM
TGI [5]: 43.2 µM
TGI [6]: 84.2 µM
TGI [7]: 82.6 µM
TGI [8]: > 100 µM
TGI [9]: > 100 µM
TGI [10]: 37.3 µM

CCC1(O)CC(OC2CC(N(C)C)C(OC3CC(O)C(OC4OC(C)C(=O)C=C4N)C(C)O3)C(C)O2)c2c(cc3c(c2O)C(=O)c2c(O)cccc2C3=O)C1C(=O)OC (configuration not stated)
GI50 [1]: 0.0208 µM
TGI [1]: 0.233 µM and 0.137 µM
TGI [2]: 0.363 µM and 0.189 µM
TGI [3]: 0.553 µM and 0.356 µM
TGI [4]: 1.18 µM and 0.624 µM
TGI [5]: 1.06 µM
TGI [6]: 0.555 µM
GI50 [7]: 0.0398 µM
TGI [7]: 1.1 µM and 2.31 µM
TGI [8]: 2.05 µM
TGI [9]: 0.431 µM and 1.24 µM
TGI [10]: 0.338 µM and 0.766 µM
